One compound from paper PMC6934184, “Selective DNA-PKcs inhibition extends the therapeutic index of localized radiotherapy and chemotherapy” (The Journal of Clinical Investigation, 2019) can be followed below.

The test deals with T1, PRKCA (PKC alpha) (Homo sapiens, UniProt P17252).
T1 construct: purchased Thermo Fisher Scientific (Life Technologies) SelectScreen
The experiment in a line: SelectScreen Z'LYTE. The test is classed as biochemical. Put shortly:
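NU5455 was profiled across the SelectScreen Broad panel of kinase activity and binding assays. Z'LYTE reactions such as CSF1R ran at apparent Km ATP, while the Adapta CAMK1 assay used ATP listed as 10. Values are given as percent.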

With `CN(C(=O)CN1CCOCC1)c1ccc2sc3c(-c4cccc5c(=O)cc(N6CC7CCC(C6)O7)oc45)cccc3c2c1` [NU5455], the inhibition (in general, the relative decrease from the control value, in per cent) at 1 µM was -2%.
